Reference: ChEMBL document CHEMBL1201862, “PubChem BioAssay data set” (2004)
Values joined by “and” are separate entries in the source; they are usually repeats but may differ in a detail not shown here. Identical values can stand only once. Active and inactive are the calls of the source.

What was measured:
[1] = target: Eukaryotic translation initiation factor 4E (Mus musculus, UniProt P63073); test: blockers of eIF4G binding by eIF4E – biochemical, TR-FRET, dose response (AID 855); assay type: functional;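 also: potency for disrupting eIF4E binding to eIF4GI seen as loss of FRET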
[2] = Counterscreen for […] of the human trace amine associated receptor 1 (TAAR1): Fluorescence-based cell-based high throughput dose response assay to identify nonselective Ga16 agonists.; assay type: functional
[3] = Counterscreen for antagonists of the human trace amine associated receptor 1 (hTAAR1): Fluorescence-based cell-based high throughput dose response assay to identify nonselective Ga16 antagonists.; assay type: functional
Beta-lactamase [4] = target: T1, Beta-lactamase (Pseudomonas aeruginosa, UniProt Q79MP6); test: […] counterscreen for selective VIM-2 inhibitors: dose response biochemical high throughput screening assay to identify inhibitors of IMP-1 metallo-beta-lactamase.
Beta-lactamase [5] = target: T1, Beta-lactamase; test: inhibition of IMP-1 beta-lactamase activity – biochemical, epi-absorbance, selectivity assay for VIM-2 inhibitor project, dose response (AID 1920)
Beta-lactamase [6] = target: Beta-lactamase (Salmonella choleraesuis (strain SC-B67), UniProt Q5J463); test: Epi-absorbance-based counterscreen for selective VIM-2 inhibitors: dose response biochemical high throughput screening assay to identify inhibitors of TEM-1 serine-beta-lactamase.
[7] = target: T2, Beta-2 adrenergic receptor (Homo sapiens, UniProt P07550); test: Dose response for HTS for Beta-2AR agonists via FAP method from Powderset1.; assay type: functional
[8] = target: T2, Beta-2 adrenergic receptor; test: ADRB2 activation measured by internalization – cell-based, FAP fluorogen, flow cytometry, cherry pick 1, dose response (AID 588763); assay type: functional
[9] = target: T3, ATP-dependent translocase ABCB1 (Homo sapiens, UniProt P08183); test: P-gp JC-1 efflux blockade concentration-response – Jurkat-DNR cells, flow cytometry, set 2, dose response (AID 504569); assay type: functional; settings: read-out: EC50_MICROM_;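 also: potency of pump inhibitors that raise cellular JC-1 green fluorescence up to the nicardipine level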
[10] = target: T3, ATP-dependent translocase ABCB1; test: inhibition of BCRP-mediated JC-1 efflux – Ig-MXP3 cells, flow cytometry, set 2, dose response (AID 504566); assay type: functional; settings: read-out: EC50_MICROM_;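 also: flow cytometry median green fluorescence of retained JC-1 dye; potency of efflux pump inhibition measured as rising substrate retention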
[11] = target: Arf-GAP with SH3 domain, ANK repeat and PH domain-containing protein 1 (Homo sapiens, UniProt Q9ULH1); assay type: functional;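 also: biochemical fluorescence polarization dose–response screen measuring inhibition of ASAP1; ASAP1 GAP domain stimulating GTP hydrolysis by truncated human ARF1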
Estrogen receptor = target: T4, Estrogen receptor (Homo sapiens, UniProt P03372);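 also: potency for inhibiting coactivator peptide recruitment to the receptor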
T4 sequence (P03372 whole entry): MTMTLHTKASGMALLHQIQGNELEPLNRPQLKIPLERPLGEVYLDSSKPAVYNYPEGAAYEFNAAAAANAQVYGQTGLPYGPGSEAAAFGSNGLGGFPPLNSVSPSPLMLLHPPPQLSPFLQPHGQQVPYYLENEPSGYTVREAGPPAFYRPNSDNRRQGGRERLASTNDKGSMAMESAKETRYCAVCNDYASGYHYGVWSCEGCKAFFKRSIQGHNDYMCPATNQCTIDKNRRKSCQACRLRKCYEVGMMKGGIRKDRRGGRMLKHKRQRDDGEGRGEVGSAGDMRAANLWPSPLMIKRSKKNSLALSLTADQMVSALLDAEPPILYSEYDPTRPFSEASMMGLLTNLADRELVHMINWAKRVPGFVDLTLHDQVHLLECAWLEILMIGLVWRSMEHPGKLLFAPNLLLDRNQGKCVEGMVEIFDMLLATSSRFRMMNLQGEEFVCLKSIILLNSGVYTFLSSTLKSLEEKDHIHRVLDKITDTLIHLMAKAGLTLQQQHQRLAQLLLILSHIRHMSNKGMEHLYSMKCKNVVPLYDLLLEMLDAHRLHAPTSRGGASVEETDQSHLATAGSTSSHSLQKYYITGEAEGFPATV

Protein RecA = target: T5, Protein RecA (Mycobacterium tuberculosis, UniProt P9WHJ3); test: Fluorescence Cell-Free Homogeneous Dose Retest to Identify Inhibitors of RecA-Intein Splicing Activity. [Related pubchem assays (depositor defined):AID2097, AID2223, AID489010, AID492950]; assay type: functional
T5 sequence (P9WHJ3 whole entry): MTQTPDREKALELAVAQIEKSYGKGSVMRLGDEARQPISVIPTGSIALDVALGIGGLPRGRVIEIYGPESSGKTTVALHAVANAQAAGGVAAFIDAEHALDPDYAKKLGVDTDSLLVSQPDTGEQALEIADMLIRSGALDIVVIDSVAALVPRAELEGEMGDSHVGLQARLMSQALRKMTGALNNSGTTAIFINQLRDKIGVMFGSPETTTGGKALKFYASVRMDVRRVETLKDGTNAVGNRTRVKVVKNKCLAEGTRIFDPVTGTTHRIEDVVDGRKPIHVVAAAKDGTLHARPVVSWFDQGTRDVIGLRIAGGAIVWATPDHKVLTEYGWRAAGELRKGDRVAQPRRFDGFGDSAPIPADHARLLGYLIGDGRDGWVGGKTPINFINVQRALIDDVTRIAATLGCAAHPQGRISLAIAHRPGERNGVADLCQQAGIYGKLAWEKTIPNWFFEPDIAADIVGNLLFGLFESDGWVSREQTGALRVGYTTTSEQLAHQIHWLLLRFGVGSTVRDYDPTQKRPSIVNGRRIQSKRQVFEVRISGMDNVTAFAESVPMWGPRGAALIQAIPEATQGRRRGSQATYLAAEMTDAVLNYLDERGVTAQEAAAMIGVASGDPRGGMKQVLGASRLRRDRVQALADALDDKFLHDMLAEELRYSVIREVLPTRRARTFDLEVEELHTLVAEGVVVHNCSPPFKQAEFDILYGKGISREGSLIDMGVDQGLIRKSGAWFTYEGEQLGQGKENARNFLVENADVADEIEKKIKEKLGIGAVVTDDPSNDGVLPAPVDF

Genome polyprotein = Genome polyprotein (dengue virus type 2, UniProt P29990); test: flavivirus cap methylation enzyme inhibition – biochemical, confirmation dose response, primary screen (AID 588689); assay type: functional
[12] = target: Hepatocyte nuclear factor 4-alpha (Homo sapiens, UniProt P41235); assay type: functional, cell-based;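 also: biochemical luminescence-based dose-response counterscreen measuring inhibition of HNF4 dimerization, run alongside a screen for blockers of ABHD5–perilipin-5 interaction; split luciferase complementation of HNF4 fusion proteins in cell lysate measuring dimerization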
[13] = target: T6, Replicative DNA helicase DnaB (Mycobacterium tuberculosis, UniProt P9WMR3); test: DnaB intein splicing inhibitors, dose response, biochemical, cell-free fluorescence (AID 449749); assay type: functional
T6 sequence (P9WMR3 whole entry): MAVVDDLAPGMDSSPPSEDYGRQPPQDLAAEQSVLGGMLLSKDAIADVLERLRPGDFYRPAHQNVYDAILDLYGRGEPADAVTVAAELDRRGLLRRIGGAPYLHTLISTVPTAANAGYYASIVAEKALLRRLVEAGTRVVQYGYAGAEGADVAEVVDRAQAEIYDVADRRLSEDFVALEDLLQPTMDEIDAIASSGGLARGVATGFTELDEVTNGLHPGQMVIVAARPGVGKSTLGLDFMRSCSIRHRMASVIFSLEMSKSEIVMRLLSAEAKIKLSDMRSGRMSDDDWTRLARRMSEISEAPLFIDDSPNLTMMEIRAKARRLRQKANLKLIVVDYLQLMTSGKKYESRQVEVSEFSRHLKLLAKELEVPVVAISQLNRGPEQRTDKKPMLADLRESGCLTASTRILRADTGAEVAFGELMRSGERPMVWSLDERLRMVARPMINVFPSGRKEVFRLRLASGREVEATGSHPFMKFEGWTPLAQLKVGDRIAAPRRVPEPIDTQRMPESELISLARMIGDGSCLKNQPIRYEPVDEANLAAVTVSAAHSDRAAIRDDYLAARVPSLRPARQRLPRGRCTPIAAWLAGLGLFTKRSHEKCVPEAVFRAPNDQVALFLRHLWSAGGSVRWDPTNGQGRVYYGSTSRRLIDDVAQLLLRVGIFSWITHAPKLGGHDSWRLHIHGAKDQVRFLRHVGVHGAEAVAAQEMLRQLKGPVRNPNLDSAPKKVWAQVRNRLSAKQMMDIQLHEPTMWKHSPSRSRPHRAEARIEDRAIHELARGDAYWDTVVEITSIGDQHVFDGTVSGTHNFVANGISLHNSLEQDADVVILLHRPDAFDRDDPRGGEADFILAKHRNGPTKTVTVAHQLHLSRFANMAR

Vero = test: viability of Vero cells under compound – cytotoxicity control for flavivirus capping enzyme inhibitors (AID 588742); assay type: functional; settings: Chlorocebus sabaeus
[14] = target: T3, ATP-dependent translocase ABCB1; test: inhibition of P-gp mediated JC-1 efflux – Jurkat-DNR cells, flow cytometry, dose response (AID 1689); assay type: functional
Streptokinase A = target: T7, Streptokinase A (Streptococcus pyogenes serotype M1, UniProt P10520); test: viability-normalized secreted streptokinase activity reduction – plasminogen activation absorbance, OD405, dose response (AID 1914); assay type: functional, Streptococcus pyogenes M1 GAS;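 also: secreted streptokinase activity via plasminogen activation per viability signal from cell pellet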
T7 sequence (P10520 whole entry): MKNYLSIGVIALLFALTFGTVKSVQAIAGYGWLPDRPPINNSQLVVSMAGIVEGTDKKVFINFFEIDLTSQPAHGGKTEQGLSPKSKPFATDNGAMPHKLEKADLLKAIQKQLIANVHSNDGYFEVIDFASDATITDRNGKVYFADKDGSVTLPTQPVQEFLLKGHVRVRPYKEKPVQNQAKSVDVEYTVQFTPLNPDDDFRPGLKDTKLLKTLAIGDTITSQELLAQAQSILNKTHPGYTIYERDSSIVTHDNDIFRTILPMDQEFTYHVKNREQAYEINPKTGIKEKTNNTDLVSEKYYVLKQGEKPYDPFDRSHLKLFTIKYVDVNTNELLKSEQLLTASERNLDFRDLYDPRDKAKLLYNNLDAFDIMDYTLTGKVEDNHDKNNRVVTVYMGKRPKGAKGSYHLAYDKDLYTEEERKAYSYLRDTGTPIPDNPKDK

[15] = test system: Streptococcus sp. 'group A'; test: Streptococcus pyogenes SK(-)GAS viability under kanamycin – luminescence, BacTiterGlo, confirmation, counter-screen for streptokinase expression inhibitor project, dose response (AID 1900); assay type: functional, organism-based
[16] = NIH3T3 cell viability loss – ATP luminescence, mouse fibroblasts, counter-screen, dose response (AID 2010); assay type: functional, cell-based;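 also: cells exposed to compound for about 90 hours before reading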
[17] = target: Broad substrate specificity ATP-binding cassette transporter ABCG2 (Homo sapiens, UniProt Q9UNQ0); test: blockers of JC-1 export by ABCG2 – Ig-MXP3 cells, flow cytometry, dose response (AID 1690); assay type: functional
Streptococcus = test: GAS UMAA2166 growth inhibition – luminescence, BacTiterGlo, counter-screen for streptokinase expression inhibitor project, dose response (AID 1915); assay type: functional, organism-based;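 also: potency for reduction of bacterial viability or growth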
[18] = Trypanosoma cruzi growth suppression in host cells – NIH3T3 host cells, beta-gal luminescence, confirmation (AID 2044); assay type: functional, cell-based;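 also: intracellular parasites grown in NIH/3T3 mouse fibroblasts as host cells; luminescent beta-galactosidase reporter signal from transgenic T. cruzi replicating inside host cells; inhibitors lower the luminescence signal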
[19] = cytotoxicity toward MDA-MB-231 breast cancer cells – cell-based, CellTiter-Glo luminescence, cherry-pick, cytotoxicity control for RAD54 inhibitor project, dose response (AID 651692); assay type: functional
[20] = target: T8, DNA repair and recombination protein RAD54-like (Homo sapiens, UniProt Q92698); test: RAD54 Holliday junction migration blockers – biochemical, fluorescence, cherry-picked samples, dose series, confirmation (AID 651657); assay type: functional
T8 sequence (Q92698 whole entry): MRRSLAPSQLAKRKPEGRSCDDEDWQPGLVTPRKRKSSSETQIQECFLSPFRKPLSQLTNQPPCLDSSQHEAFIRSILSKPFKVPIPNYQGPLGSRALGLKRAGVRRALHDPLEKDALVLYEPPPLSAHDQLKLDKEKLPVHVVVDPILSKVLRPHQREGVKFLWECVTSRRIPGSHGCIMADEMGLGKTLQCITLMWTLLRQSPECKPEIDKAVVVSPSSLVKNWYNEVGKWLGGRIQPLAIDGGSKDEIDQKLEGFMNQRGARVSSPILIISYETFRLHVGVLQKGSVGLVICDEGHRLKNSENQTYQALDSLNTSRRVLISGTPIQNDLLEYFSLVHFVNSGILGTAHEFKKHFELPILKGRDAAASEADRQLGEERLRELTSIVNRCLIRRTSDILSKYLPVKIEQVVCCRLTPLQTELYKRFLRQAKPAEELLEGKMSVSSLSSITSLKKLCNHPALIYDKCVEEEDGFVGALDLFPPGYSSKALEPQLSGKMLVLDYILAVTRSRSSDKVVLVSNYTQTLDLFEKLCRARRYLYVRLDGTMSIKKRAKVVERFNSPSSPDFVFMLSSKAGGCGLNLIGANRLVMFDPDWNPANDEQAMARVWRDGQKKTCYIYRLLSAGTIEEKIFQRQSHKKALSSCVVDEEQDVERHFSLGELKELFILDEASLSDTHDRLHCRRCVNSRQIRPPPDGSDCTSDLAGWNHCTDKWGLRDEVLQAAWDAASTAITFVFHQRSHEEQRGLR

T3 sequence (P08183 whole entry): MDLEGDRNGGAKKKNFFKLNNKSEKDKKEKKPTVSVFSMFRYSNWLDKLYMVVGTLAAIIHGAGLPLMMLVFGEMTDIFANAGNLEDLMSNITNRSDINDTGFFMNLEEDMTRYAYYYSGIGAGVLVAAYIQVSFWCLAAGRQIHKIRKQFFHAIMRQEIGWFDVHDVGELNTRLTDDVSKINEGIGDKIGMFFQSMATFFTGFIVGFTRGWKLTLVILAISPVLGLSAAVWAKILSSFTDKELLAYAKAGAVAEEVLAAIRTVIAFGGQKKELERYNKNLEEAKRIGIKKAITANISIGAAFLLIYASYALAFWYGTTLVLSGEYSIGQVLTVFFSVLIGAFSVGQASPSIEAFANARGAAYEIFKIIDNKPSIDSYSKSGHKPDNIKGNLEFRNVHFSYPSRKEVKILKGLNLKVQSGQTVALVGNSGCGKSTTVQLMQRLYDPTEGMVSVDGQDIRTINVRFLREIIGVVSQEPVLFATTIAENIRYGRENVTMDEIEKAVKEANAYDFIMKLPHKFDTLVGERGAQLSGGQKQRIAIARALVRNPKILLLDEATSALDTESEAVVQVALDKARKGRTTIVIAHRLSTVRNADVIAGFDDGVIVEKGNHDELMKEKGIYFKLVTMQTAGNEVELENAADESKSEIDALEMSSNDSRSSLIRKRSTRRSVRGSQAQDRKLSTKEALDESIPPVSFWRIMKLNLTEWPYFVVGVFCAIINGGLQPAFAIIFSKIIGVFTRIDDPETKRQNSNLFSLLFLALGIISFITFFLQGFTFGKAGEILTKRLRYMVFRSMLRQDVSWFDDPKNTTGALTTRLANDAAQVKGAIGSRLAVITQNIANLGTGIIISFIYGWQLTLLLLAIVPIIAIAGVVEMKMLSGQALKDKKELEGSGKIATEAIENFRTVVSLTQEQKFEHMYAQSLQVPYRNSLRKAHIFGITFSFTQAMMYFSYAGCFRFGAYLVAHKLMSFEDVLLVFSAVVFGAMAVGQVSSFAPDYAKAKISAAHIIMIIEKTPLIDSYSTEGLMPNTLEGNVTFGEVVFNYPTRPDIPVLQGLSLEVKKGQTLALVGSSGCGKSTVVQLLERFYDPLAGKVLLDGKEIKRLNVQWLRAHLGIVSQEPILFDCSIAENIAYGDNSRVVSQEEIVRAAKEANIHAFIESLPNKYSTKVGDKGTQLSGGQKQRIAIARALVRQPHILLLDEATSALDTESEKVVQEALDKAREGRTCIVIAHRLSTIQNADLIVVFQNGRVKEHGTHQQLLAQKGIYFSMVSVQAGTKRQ
T2 sequence (P07550 whole entry): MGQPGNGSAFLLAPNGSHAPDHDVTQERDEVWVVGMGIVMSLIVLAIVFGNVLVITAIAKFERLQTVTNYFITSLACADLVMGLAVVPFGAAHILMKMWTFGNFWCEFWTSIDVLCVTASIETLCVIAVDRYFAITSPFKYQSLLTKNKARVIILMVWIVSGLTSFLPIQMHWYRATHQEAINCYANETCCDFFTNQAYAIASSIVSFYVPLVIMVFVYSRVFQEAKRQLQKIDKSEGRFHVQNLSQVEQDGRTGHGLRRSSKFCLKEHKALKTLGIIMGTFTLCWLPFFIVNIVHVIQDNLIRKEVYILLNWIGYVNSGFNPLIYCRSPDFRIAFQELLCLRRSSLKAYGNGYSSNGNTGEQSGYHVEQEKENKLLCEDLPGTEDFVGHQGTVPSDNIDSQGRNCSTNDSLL
T1 sequence (Q79MP6 whole entry): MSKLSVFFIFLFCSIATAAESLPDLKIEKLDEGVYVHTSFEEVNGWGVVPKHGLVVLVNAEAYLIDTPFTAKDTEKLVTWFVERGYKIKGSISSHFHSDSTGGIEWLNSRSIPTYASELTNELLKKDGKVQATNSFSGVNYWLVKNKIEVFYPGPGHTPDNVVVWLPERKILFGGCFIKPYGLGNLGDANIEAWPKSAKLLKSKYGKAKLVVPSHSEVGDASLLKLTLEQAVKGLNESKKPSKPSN
Sequence of Beta-lactamase (Salmonella choleraesuis (strain SC-B67), UniProt Q5J463) (Q5J463 whole entry): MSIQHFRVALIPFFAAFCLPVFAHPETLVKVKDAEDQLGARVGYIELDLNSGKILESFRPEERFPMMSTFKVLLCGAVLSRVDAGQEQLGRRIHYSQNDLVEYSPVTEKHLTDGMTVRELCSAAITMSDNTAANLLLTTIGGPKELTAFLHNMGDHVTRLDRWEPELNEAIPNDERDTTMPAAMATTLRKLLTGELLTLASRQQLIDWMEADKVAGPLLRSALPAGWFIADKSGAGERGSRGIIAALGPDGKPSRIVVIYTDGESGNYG
Sequence of Hepatocyte nuclear factor 4-alpha (P41235 whole entry, the tested form may be a part): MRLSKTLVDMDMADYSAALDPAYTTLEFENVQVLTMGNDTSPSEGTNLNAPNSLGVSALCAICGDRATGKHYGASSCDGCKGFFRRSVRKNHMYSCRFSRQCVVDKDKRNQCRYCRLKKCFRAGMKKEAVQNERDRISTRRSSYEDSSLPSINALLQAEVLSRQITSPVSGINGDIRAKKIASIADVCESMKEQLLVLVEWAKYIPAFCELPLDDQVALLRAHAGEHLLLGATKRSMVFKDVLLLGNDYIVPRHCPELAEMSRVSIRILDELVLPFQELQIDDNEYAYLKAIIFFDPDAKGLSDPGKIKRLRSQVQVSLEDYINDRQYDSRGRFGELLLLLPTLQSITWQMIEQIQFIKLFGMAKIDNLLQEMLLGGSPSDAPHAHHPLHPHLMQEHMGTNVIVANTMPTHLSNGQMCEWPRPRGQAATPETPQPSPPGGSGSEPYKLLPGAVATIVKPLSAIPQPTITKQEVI
Sequence of Genome polyprotein (P29990 2492-3391 limits assumed): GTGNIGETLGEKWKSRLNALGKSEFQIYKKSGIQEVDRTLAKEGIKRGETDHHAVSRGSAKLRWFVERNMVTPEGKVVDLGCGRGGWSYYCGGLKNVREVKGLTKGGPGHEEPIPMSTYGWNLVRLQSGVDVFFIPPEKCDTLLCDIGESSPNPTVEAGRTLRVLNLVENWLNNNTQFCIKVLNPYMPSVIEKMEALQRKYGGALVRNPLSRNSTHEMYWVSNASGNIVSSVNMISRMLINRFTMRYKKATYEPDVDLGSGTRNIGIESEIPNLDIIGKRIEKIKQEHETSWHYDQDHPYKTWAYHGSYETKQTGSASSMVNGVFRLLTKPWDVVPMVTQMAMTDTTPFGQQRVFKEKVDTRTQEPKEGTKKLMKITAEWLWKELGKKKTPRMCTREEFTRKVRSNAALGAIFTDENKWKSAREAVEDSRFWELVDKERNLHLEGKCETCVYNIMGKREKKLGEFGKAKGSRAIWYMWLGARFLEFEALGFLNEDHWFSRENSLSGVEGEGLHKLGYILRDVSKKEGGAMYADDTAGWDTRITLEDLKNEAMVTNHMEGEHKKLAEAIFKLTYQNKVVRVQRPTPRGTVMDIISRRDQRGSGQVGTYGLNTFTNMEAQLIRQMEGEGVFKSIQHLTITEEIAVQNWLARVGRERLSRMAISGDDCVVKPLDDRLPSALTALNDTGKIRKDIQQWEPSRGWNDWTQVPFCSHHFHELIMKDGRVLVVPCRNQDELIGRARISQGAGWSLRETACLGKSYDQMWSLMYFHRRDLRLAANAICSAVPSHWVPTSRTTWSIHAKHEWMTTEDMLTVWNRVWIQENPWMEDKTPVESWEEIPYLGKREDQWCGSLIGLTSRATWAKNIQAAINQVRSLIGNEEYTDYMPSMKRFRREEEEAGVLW
Sequence of Arf-GAP with SH3 domain, ANK repeat and PH domain-containing protein 1 (Q9ULH1 whole entry, the tested form may be a part): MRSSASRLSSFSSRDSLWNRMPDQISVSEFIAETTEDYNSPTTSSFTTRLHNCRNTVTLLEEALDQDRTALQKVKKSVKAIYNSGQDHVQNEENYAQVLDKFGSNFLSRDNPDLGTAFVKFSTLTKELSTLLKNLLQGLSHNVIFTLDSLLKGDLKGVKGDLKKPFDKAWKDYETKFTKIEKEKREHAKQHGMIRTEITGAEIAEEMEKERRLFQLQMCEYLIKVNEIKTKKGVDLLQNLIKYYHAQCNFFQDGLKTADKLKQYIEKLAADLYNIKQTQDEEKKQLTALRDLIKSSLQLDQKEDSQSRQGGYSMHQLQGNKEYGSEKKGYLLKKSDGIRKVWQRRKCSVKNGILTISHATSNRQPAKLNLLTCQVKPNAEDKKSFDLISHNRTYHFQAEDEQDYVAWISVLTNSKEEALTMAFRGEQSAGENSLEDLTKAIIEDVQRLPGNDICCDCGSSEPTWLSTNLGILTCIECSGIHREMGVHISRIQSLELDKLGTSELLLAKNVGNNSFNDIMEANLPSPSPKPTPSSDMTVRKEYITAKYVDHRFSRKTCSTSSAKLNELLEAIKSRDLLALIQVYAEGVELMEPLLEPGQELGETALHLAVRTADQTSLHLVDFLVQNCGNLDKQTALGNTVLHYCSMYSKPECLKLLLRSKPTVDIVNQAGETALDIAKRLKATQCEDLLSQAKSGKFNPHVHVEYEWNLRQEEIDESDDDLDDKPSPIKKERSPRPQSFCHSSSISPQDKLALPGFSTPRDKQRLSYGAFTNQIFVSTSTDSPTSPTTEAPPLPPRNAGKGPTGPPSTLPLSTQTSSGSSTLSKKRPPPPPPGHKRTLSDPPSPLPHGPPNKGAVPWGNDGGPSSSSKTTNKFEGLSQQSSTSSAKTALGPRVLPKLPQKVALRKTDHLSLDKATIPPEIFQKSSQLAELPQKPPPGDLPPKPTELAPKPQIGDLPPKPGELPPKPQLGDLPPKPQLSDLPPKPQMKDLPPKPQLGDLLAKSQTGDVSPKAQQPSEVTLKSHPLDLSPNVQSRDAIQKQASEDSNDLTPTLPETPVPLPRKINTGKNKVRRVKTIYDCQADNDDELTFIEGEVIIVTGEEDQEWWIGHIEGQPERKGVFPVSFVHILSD
Sequence of Eukaryotic translation initiation factor 4E (P63073 whole entry): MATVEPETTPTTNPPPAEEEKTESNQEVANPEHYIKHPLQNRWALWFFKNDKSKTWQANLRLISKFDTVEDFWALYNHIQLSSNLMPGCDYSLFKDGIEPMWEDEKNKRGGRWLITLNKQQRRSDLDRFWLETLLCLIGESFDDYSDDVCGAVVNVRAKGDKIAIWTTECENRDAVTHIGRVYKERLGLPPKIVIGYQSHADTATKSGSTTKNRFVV

Cc1ccc(-n2c(C)cc(/C=N/Nc3ccc([N+](=O)[O-])cn3)c2C)cc1
IC50 [1]: > 64 µM (inactive)
EC50 [2]: > 29.9 µM (inactive)
IC50 [3]: > 29.9 µM (inactive)

O=C(CSc1nnc(NC(=O)c2ccccc2)s1)NCc1ccco1
IC50 (Beta-lactamase [4]): > 59.6 µM (inactive)
IC50 (Beta-lactamase [5]): > 59.6 µM (inactive)
IC50 (Beta-lactamase [6]): > 59.6 µM (inactive)

CN(CC(=O)N1CCN(c2ccccn2)CC1)S(=O)(=O)c1ccc(Br)cc1
EC50 [7]: 0.0191 µM (active)
EC50 [8]: 82.8 nM (active) and 35.6 nM (active)

COc1ccc(-c2cc3nc(C)cc(N4CCN(C(=O)c5cccnc5)CC4)n3n2)cc1
EC50 [9]: 19 µM (inactive)
EC50 [10]: 10.7 µM (active)

COc1ccc2c(c1)CC/C(=C\c1ccc(OC)c(Cn3nc(C)cc3C)c1)C2=O
IC50 [11]: 26.8 µM (inactive)
IC50 (Estrogen receptor): > 50 µM (not active)

CC(=O)Oc1c(Br)cc(N(C(C)=O)S(=O)(=O)c2ccccc2)c2ccccc12
EC50 (Protein RecA): 2.81 µM (active)
IC50 (Genome polyprotein): 49.8 µM (active)
IC50 [12]: 6.11 µM (active)
AC50 [13]: 3.76 µM (active)
CC50 (Vero): 39.8 µM (active)

COc1ccc(-c2nn(-c3ccccc3)cc2/C=C/C(=O)N2CCN(c3ccccn3)CC2)cc1
EC50 [14]: 1.64 µM (active)
EC50 (Streptokinase A): > 150 µM (not active)
EC50 [15]: 3.86 µM (active)
EC50 [16]: > 60 µM (not active)
EC50 [17]: 0.41 µM (active)
EC50 (Streptococcus): 39.3 µM (active)
EC50 [18]: 2.34 µM (active)

CCOC(=O)N1CCN(S(=O)(=O)c2ccc(C(=O)Nc3sc4c(c3C(=O)OC)CCN(C)C4)cc2)CC1
AC50 [19]: 17.1 µM (active)
AC50 [20]: 16.8 µM (active)
